Test results: ChEMBL document CHEMBL1159211, “Antifungal evaluation of pseudolaric acid B, a major constituent of Pseudolarix kaempferi” (J Nat Prod, 1995)
Activity calls are given as the source filed them. The rule behind the calls is not given here.

What was measured:
[1] = tested on: Saccharomyces cerevisiae; assay: Antimicrobial activity against Saccharomyces cerevisiae at 1 mg/mL by agar-well diffusion assay; assay type: functional, organism-based
[2] = tested on: Mycobacterium intracellulare; assay: Antimicrobial activity against Mycobacterium intracellular at 1 mg/mL by agar-well diffusion assay; assay type: functional
[3] = tested on: Candida albicans; assay: (§1) Antifungal activity against Candida albicans NIH B311 infected in mouse assessed as reduction in number of recovered colony-forming units assessed per mg of kidney at 3 mg/kg, ip administered 7 and 24 hrs after infection measured 16 hrs after final injection by tenfold serial dilution method relative to control; assay type: functional; design: scale not given: the % may be the effect or the level left; conditions: route intraperitoneal
[4] = tested on: Aspergillus flavus; assay: Antimicrobial activity against Aspergillus flavus at 1 mg/mL by agar-well diffusion assay; assay type: functional
[5] = tested on: Staphylococcus aureus; assay: Antimicrobial activity against Staphylococcus aureus at 1 mg/mL by agar-well diffusion assay; assay type: functional, organism-based
[6] = tested on: Candida albicans; assay: Antimicrobial activity against Candida albicans at 1 mg/mL by agar-well diffusion assay; assay type: functional; conditions: Candida albicans; read-out: IZ
[7] = tested on: Bacillus subtilis; assay: Antimicrobial activity against Bacillus subtilis at 1 mg/mL by agar-well diffusion assay; assay type: functional, organism-based
[8] = tested on: Trichophyton mentagrophytes; assay: Antimicrobial activity against Trichophyton mentagrophytes at 1 mg/mL by agar-well diffusion assay; assay type: functional
[9] = tested on: Escherichia coli; assay: Antimicrobial activity against Escherichia coli at 1 mg/mL by agar-well diffusion assay; assay type: functional, organism-based
[10] = tested on: Cryptococcus neoformans; assay: Antimicrobial activity against Cryptococcus neoformans at 1 mg/mL by agar-well diffusion assay; assay type: functional
[11] = tested on: Nannizzia gypsea; assay: Antimicrobial activity against Microsporum gypseum at 1 mg/mL by agar-well diffusion assay; assay type: functional
[12] = tested on: Candida albicans; assay: as §1, with “at 20” for “at 3”; assay type: functional, organism-based; design: dose 20 mg/kg
[13] = tested on: Candida albicans; assay: as §1, with “at 7” for “at 3”; assay type: functional; design: scale not given: the % may be the effect or the level left; conditions: route intraperitoneal
[14] = tested on: Candida albicans; assay: as §1, with “mouse tissue-burden model” for “mouse”, “at 3.5” for “at 3”; assay type: functional; design: scale not given: the % may be the effect or the level left; conditions: route intraperitoneal
[15] = tested on: Aspergillus fumigatus; assay: Antimicrobial activity against Aspergillus fumigatus at 1 mg/mL by agar-well diffusion assay; assay type: functional
[16] = tested on: Pseudomonas aeruginosa; assay: Antimicrobial activity against Pseudomonas aeruginosa at 1 mg/mL by agar-well diffusion assay; assay type: functional, organism-based

Compound: COC(=O)C1=CC[C@@]23CC[C@@H]([C@@](C)(/C=C/C=C(\C)C(=O)O[C@@H]4O[C@H](CO)[C@@H](O)[C@H](O)[C@H]4O)OC2=O)[C@@]3(OC(C)=O)CC1
- Activity [1]: inactive
- Activity [2]: inactive
- Activity [3]: 9.91%
- Activity [4]: inactive
- Activity [5]: inactive
- zone of inhibition at 1000 µg/mL [6]: < 1 mm
- Activity [7]: inactive
- Activity [8]: inactive
- Activity [9]: inactive
- Activity [10]: inactive
- Activity [11]: inactive
- Activity [12]: inactive
- Activity [13]: 46.59%
- Activity [14]: 10%
- Activity [15]: inactive
- Activity [16]: inactive
